Data published in patent publication US12102089B2, “Method for inactivating mold spores” (DSM IP ASSETS B.V., priority 2017, dated 2024).

Experiment: LC-MS/MS analysis of natamycin and mycosamine in heated ice tea sample
Type: physicochemical
Settings: 10 ppm natamycin at t=0, heated at 70° C.
Description: For the analysis of mycosamine at low concentrations (ppb level) a sample preparation is used with a cation exchange SPE material to isolate mycosamine from the sample matrix and/or remove possible interfering impurities therefrom. The analysis was performed on LC-MS/MS on a ZIC-HILIC column. For the identification and (semi) quantification a reference of mycosamine was prepared. The concentration of mycosamine in this reference was determined with ^1H-NMR.

Measured: mycosamine found in sample

C[C@@H](O)[C@@H](O)[C@H](N)[C@H](O)C=O [mycosamine]
2 mg/L: Example 1 ice tea sample (pH 3.15) | Example 2 ice tea sample | Example 3 ice tea sample
